Measurements from PubChem BioAssay AID330 (DTP/NCI, 2004).
Where “and” joins values, the source holds several entries; their conditions need not be identical. Equal entries are not always repeated. Toxic doses and inconclusive results are not listed. How the source made its calls: active means survival T/C of 150% or more; inactive means T/C below 125% in these data.

System: P388 leukemia ip, CD2F1 mice, survival T/C
Assay: NCI In Vivo Anticancer Drug Screen. Data for tumor model P388 Leukemia (intraperitoneal) in CD2F1 (CDF1) mice
Details: endpoint: median survival time, higher = longer survival
Method in brief: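 Mice carrying the transplanted tumor received test compound or vehicle. Survival was recorded in each group, and the value is the treated-group measurement divided by that of the vehicle-treated control group.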

[1] = dose: 50.0 mg/kg/injection, schedule: Q01DX005 (ip), vehicle: saline with Tween-80
[2] = dose: 100.0 mg/kg/injection, schedule: Q01DX005 (ip), vehicle: saline with Tween-80
[3] = dose: 200.0 mg/kg/injection, schedule: Q01DX005 (ip), vehicle: saline with Tween-80
[4] = dose: 100.0 mg/kg/injection, schedule: Q01DX001 (ip), vehicle: Klucel (hydroxypropylcellulose) (HPC)
[5] = dose: 200.0 mg/kg/injection, schedule: Q01DX001 (ip), vehicle: Klucel (hydroxypropylcellulose) (HPC)
[6] = dose: 25.0 mg/kg/injection, schedule: Q01DX009 (ip), vehicle: saline with Tween-80
[7] = dose: 50.0 mg/kg/injection, schedule: Q01DX009 (ip), vehicle: saline with Tween-80
[8] = dose: 200.0 mg/kg/injection, schedule: Q01DX009 (ip), vehicle: saline with Tween-80
[9] = dose: 100.0 mg/kg/injection, schedule: Q01DX009 (ip), vehicle: saline with Tween-80
[10] = dose: 12.5 mg/kg/injection, schedule: Q01DX009 (ip), vehicle: saline
[11] = dose: 25.0 mg/kg/injection, schedule: Q01DX009 (ip), vehicle: saline
[12] = dose: 50.0 mg/kg/injection, schedule: Q01DX009 (ip), vehicle: saline
[13] = dose: 100.0 mg/kg/injection, schedule: Q01DX009 (ip), vehicle: saline
[14] = dose: 200.0 mg/kg/injection, schedule: Q01DX009 (ip), vehicle: saline

Measured: T/C

CCN(CC)CCCC(C)Nc1ncnc2cc(Cl)ccc12 (stereo unspecified)
inactive: [1] 97 % of control | [2] 94 % of control | [3] 94 % of control

CC(=O)OC1CC2(OC(C)=O)CC(OC2=O)C1OC(C)=O (stereo unspecified)
inactive: [4] 100 % of control | dose: 100.0 mg/kg/injection, schedule: Q04DX002 (ip), vehicle: Klucel (hydroxypropylcellulose) (HPC) 100 % of control | [5] 100 % of control | dose: 200.0 mg/kg/injection, schedule: Q04DX002 (ip), vehicle: Klucel (hydroxypropylcellulose) (HPC) 100 % of control | dose: 400.0 mg/kg/injection, schedule: Q01DX001 (ip), vehicle: Klucel (hydroxypropylcellulose) (HPC) 99 % of control | dose: 400.0 mg/kg/injection, schedule: Q04DX002 (ip), vehicle: Klucel (hydroxypropylcellulose) (HPC) 98 % of control

[Br][Rh][Br].[NH-]c1nc2c(ccc3ccccc32)s1.[NH-]c1nc2c(ccc3ccccc32)s1.[NH-]c1nc2c(ccc3ccccc32)s1.[NH-]c1nc2c(ccc3ccccc32)s1
inactive: dose: 100.0 mg/kg/injection, schedule: Q04DX003 (ip), vehicle: saline 109 % of control | dose: 200.0 mg/kg/injection, schedule: Q04DX003 (ip), vehicle: saline 103 % of control | dose: 400.0 mg/kg/injection, schedule: Q04DX003 (ip), vehicle: saline 98 % of control

CCCC(O)(CCC)/C(C)=N/O
inactive: dose: 12.5 mg/kg/injection, schedule: Q01DX009 (ip), vehicle: saline with Tween-80 99 % of control | [6] 107 % of control | [7] 87 % of control and 98 % of control | [8] 88 % of control

CCCCc1ccc(C)c(O)c1
inactive: [7] 110 % of control | [9] 98 % of control

CCCCCCCCCCCCCCCC[N+](C)(C)CCNC(=O)C1CSC(C)(C)N1C=O (stereo unspecified)
inactive: [10] 106 % of control | [11] 97 % of control

Cc1nc(C(=O)OCc2ccccc2)cc(OCc2ccccc2)c1C
inactive: dose: 12.5 mg/kg/injection, schedule: Q01DX009 (ip), vehicle: distilled water + Tween-80 101 % of control | dose: 25.0 mg/kg/injection, schedule: Q01DX009 (ip), vehicle: distilled water + Tween-80 90 % of control | dose: 50.0 mg/kg/injection, schedule: Q01DX009 (ip), vehicle: distilled water + Tween-80 95 % of control | dose: 100.0 mg/kg/injection, schedule: Q01DX009 (ip), vehicle: distilled water + Tween-80 90 % of control | dose: 200.0 mg/kg/injection, schedule: Q01DX009 (ip), vehicle: distilled water + Tween-80 93 % of control

CC(=O)Oc1cc2c(cc1C(NC(N)=O)c1ccc3c(c1)OCO3)OCO2 (stereo unspecified)
inactive: dose: 60.0 mg/kg/injection, schedule: Q01DX005 (ip), vehicle: Klucel (hydroxypropylcellulose) (HPC) 100 % of control | dose: 120.0 mg/kg/injection, schedule: Q01DX005 (ip), vehicle: Klucel (hydroxypropylcellulose) (HPC) 93 % of control | dose: 240.0 mg/kg/injection, schedule: Q01DX005 (ip), vehicle: Klucel (hydroxypropylcellulose) (HPC) 92 % of control

NNC(=O)c1ccc(Cl)cc1
inactive: [6] 91 % of control | [7] 96 % of control | [9] 96 % of control | [8] 86 % of control

CN1CCN(CCCN(c2cccc(C(F)(F)F)c2)c2cccc(C(F)(F)F)c2)CC1
inactive: dose: 50.0 mg/kg/injection, schedule: Q01DX001 (ip), vehicle: Klucel (hydroxypropylcellulose) (HPC) 100 % of control | [4] 98 % of control | [5] 92 % of control

[Cl][Cu][Cl].[O-][n+]1c2ccccc2nc2ccccc21
inactive: dose: 12.5 mg/kg/injection, schedule: Q04DX003 (ip), vehicle: saline with Tween-80 92 % of control | dose: 25.0 mg/kg/injection, schedule: Q04DX003 (ip), vehicle: saline with Tween-80 103 % of control

O=Cc1ccc2occc2c1O
inactive: dose: 3.75 mg/kg/injection, schedule: Q01DX009 (ip), vehicle: saline with Tween-80 95 % of control | dose: 7.5 mg/kg/injection, schedule: Q01DX009 (ip), vehicle: saline with Tween-80 94 % of control | dose: 15.0 mg/kg/injection, schedule: Q01DX009 (ip), vehicle: saline with Tween-80 92 % of control

CCCCCCC(=O)/C=C/c1ccc(OC(=O)c2ccc([N+](=O)[O-])cc2)cc1
inactive: [10] 105 % of control | [11] 100 % of control | [12] 103 % of control and 97 % of control | [13] 92 % of control | [14] 92 % of control

C/C(N)=N/OC(c1ccccc1)(c1ccccc1)c1ccccc1
inactive: dose: 50.0 mg/kg/injection, schedule: Q01DX005 (ip), vehicle: Klucel + Tween-80 94 % of control | dose: 100.0 mg/kg/injection, schedule: Q01DX005 (ip), vehicle: Klucel + Tween-80 90 % of control | dose: 200.0 mg/kg/injection, schedule: Q01DX005 (ip), vehicle: Klucel + Tween-80 93 % of control

COC(=O)C(=O)c1c(C(=O)OC)nc2[nH]n(-c3ccccc3)c(=O)c2c1Cc1ccccc1
inactive: dose: 60.0 mg/kg/injection, schedule: Q01DX005 (ip), vehicle: saline with Tween-80 98 % of control | dose: 120.0 mg/kg/injection, schedule: Q01DX005 (ip), vehicle: saline with Tween-80 100 % of control | dose: 240.0 mg/kg/injection, schedule: Q01DX005 (ip), vehicle: saline with Tween-80 91 % of control

C=CCC(C(=O)O)C1(C(=O)O)CCCCCC1 (stereo unspecified)
inactive: dose: 100.0 mg/kg/injection, schedule: Q04DX002 (ip), vehicle: saline with Tween-80 94 % of control | dose: 200.0 mg/kg/injection, schedule: Q04DX002 (ip), vehicle: saline with Tween-80 93 % of control | dose: 400.0 mg/kg/injection, schedule: Q04DX002 (ip), vehicle: saline with Tween-80 92 % of control

O=C(C1=C(NCc2ccccc2)CCCC1)c1ccccc1
inactive: [10] 97 % of control | [11] 100 % of control | [12] 104 % of control and 109 % of control

O=C(Cn1ccc(O)cc1=O)N1CCOCC1
inactive: dose: 100.0 mg/kg/injection, schedule: Q04DX003 (ip), vehicle: water 95 % of control | dose: 200.0 mg/kg/injection, schedule: Q04DX003 (ip), vehicle: water 90 % of control | dose: 400.0 mg/kg/injection, schedule: Q04DX003 (ip), vehicle: water 100 % of control

CC(=NCc1ccccc1)/C(=N\O)C(=O)Nc1ccc(Cl)cc1
inactive: dose: 400.0 mg/kg/injection, schedule: Q04DX003 (ip), vehicle: saline with Tween-80 96 % of control

Fc1ccc(NC(=S)SCc2ccc(Cl)c(Cl)c2)c(F)c1
inactive: dose: 50.0 mg/kg/injection, schedule: Q01DX009 (ip), vehicle: suspension in saline 93 % of control | dose: 100.0 mg/kg/injection, schedule: Q01DX009 (ip), vehicle: suspension in saline 100 % of control | dose: 200.0 mg/kg/injection, schedule: Q01DX009 (ip), vehicle: suspension in saline 88 % of control

COc1cccc(/C(C#N)=N/NC(=O)c2nc[nH]c2C)c1
inactive: dose: 1.56 mg/kg/injection, schedule: Q01DX005 (ip), vehicle: saline with Tween-80 93 % of control | dose: 3.12 mg/kg/injection, schedule: Q01DX005 (ip), vehicle: saline with Tween-80 94 % of control | dose: 6.25 mg/kg/injection, schedule: Q01DX005 (ip), vehicle: saline with Tween-80 95 % of control | dose: 12.5 mg/kg/injection, schedule: Q01DX005 (ip), vehicle: saline with Tween-80 93 % of control | [1] 86 % of control | [2] 87 % of control | [3] 100 % of control

C[C@H]1CC[C@@]2(C)C(CCC(=O)C2(C)O)[C@]1(C)CC(=O)c1ccoc1 (stereo partly specified)
inactive: dose: 3.75 mg/kg/injection, schedule: Q01DX005 (ip), vehicle: Klucel (hydroxypropylcellulose) (HPC) 91 % of control | dose: 7.5 mg/kg/injection, schedule: Q01DX005 (ip), vehicle: Klucel (hydroxypropylcellulose) (HPC) 88 % of control | dose: 15.0 mg/kg/injection, schedule: Q01DX005 (ip), vehicle: Klucel (hydroxypropylcellulose) (HPC) 88 % of control | dose: 30.0 mg/kg/injection, schedule: Q01DX005 (ip), vehicle: Klucel (hydroxypropylcellulose) (HPC) 88 % of control

CC(O)C(O)C(=O)O (stereo unspecified)
inactive: [12] 94 % of control | [13] 93 % of control | [14] 91 % of control | dose: 400.0 mg/kg/injection, schedule: Q01DX009 (ip), vehicle: saline 92 % of control

Cc1ccc(NC(=O)Oc2c(C)cc(Cl)cc2C)c([N+](=O)[O-])c1
inactive: [7] 95 % of control | [8] 95 % of control
